The values below come from patent US20120142627A1, “MONOPHOSPHATE PRODRUGS OF DAPD AND ANALOGS THEREOF” (Emory University, priority 2010, published 2012).

The term EC50 denotes the midpoint of the concentration-response curve. A word on the EC90: it is the point of the concentration-response curve where the effect stands at 90%. The IC50 is the concentration that gives 50% inhibition.

Read-outs that look alike come from different tables or passages of the source.

One data set has as its system PBM cells. Kind of data set: Intracellular metabolites (DXG-TP, DAPD-TP) in PBM cells. The data set is classed as in vitro ADME, human. As to conditions: for DXG-TP levels: PBM cells incubated for 4 h at 50 µM, mean and S.D.; for intracellular DXG-TP detected (in words) / intracellular phosphorylated DAPD / DAPD-TP detected (in words): PBM cells, 50 μM, 4 h, 37° C. The protocol:
Reexamination of the intracellular metabolism of DAPD, which contains a 6-amino group, at 50 μM for 4 h in PBM cells at 37° C. resulted the detection of high levels of DXG-TP in addition to DXG and DXG-MP.
PBM cells were incubated with the corresponding compounds for 4 h […]. The data plotted represent the mean value and S.D. of experiments with PBM cells.

The test system of data set [1] is PHA-stimulated human PBMCs and CEM cells. As to conditions: cited from earlier work.
For another data set, the system named is HIV-1LAI. The data set is described as follows: Anti-HIV (in PBM cells) assay. The data set is classed as cell-based. The following applies: Human immunodeficiency virus 1, PBMC; for EC50: read-out: HIV EC50; for EC90: read-out: HIV EC90. The protocol:
Stock solutions (20-40 mM) of the compounds were prepared in sterile DMSO and then diluted to the desired concentration in growth medium. Cells were infected with the prototype HIV-1LAI at a multiplicity of infection of 0.01. Virus obtained from the cell supernatant was quantified on day 6 after infection by a reverse transcriptase assay using (rA)n.(dT)12-18 as template-primer. The DMSO present in the diluted solution (<0.1%) had no effect on the virus yield. AZT was included as positive control.

A further data set deals with Vero cells. The data set is described as follows: Cytotoxicity in Vero cells. As to conditions: Chlorocebus sabaeus, read-out: Vero IC50.
A further data set relates to human PBM cells. The data set is described as follows: Cytotoxicity in human PBM cells. The data set is classed as cell-based. The protocol: v) Cellular Toxicity Assays: 6-Substituted-2-amino purine dioxolane monophosphate prodrugs were evaluated for their potential toxic effects on P4/R5 cells, MT-2 cells and uninfected PHA-stimulated human PBM cell. Log-phase P4/R5, MT-2, and PHA-stimulated human PBM cells were seeded at 5×10^3 to 5×10^4 cells/well in 96-well cell culture plates containing 10-fold serial dilutions of the test drug. The cultures were incubated for 2-4 days, after which 3-(4,5-dimethylthiazol-2-yl)-2,5-diphenyltetrazolium bromide (MIT) dye solution (Promega, Madison, Wis.) were added to each well and incubated overnight. The reaction was stopped with stop solubilization solution (Promega, Madison, Wis.) and plates were read at a wavelength of 570 nm.

The subject of data set [2] is CEM (human lymphoblastoid) cells. The data set is described as follows: Cytotoxicity in CEM cells. The following applies: Lymphoblastoid cell, read-out: CEM IC50.
Source text: (§1) The toxicity of the compounds can be assessed in Vero, human PBM, CEM (human lymphoblastoid), MT-2, and HepG2 cells, as described previously (see Schinazi R. F., Sommadossi J.-P., Saalmann V., Cannon D. L., Xie M.-Y., Hart G. C., Smith G. A. & Hahn E. F. Antimicrob. Agents Chemother. 1990, 34, 1061-67). Cycloheximide can be included as positive cytotoxic control, and untreated cells exposed to solvent can be included as negative controls. The cytotoxicity IC50 can be obtained from the concentration-response curve using the median effective method described previously (see Chou T.-C. & Talalay P. Adv. Enzyme Regul. 1984, 22, 27-55; Belen'kii M. S. & Schinazi R. F. Antiviral Res. 1994, 25, 1-11).
The test system of a further data set is adenosine deaminase. Kind of data set: Adenosine deaminase assay. The following applies: 7 minutes, 0.002 units of enzyme, 50 μM, pH 7.4, 25° C. The data set is classed as biochemical. The protocol: To determine the propensity for deamination of the 6-substituted-2-amino purine dioxolane monophosphate prodrugs by adenosine deaminase, nucleoside compounds were incubated with the commercially available purified enzyme, and the reaction was followed spectrophotometrically. Reaction conditions were 50 mM potassium phosphate, pH 7.4, with 50 μM nucleoside analog in 0.5 mL at 25° C. Reaction time was 7 minutes with 0.002 units of enzyme and 120 minutes with 0.2 units of enzyme. (The unit definition of adenosine deaminase is one unit will deaminate 1.0 μmol of adenosine to inosine per minute at pH 7.5 at 25° C.) Deoxyadenosine was the positive control which was 59% deaminated under the given conditions in 7 minutes with 0.002 units of enzyme. Deoxyguanosine was the negative control. Optical density was measured at 265 nm or 285 nm. The difference in optical density between the beginning and the end of the experiment was divided by the extinction coefficient then multiplied by the volume of the reaction to determine the number of mols of substrate transformed into product. Mols of product were divided by mols of substrate equivalent to a 100% complete reaction then multiplied by 100 to obtain percent deamination. The limit of detection was 0.001 optical density units.

Source text for Vero cells: as §1

`Nc1nc(Cl)c2ncn(C3COC(CO)O3)c2n1` (centres unmarked) [6-Cl-DXG]: the DXG-TP levels in the data set on PBM cells turned out to be 0.10 pmol/10^6 cells.
On the same count and under the same terms, then `COc1nc(N)nc2c1ncn2C1COC(CO)O1` (centres unmarked) [6-OMe-DXG], with 0.55 pmol/10^6 cells.
Consider `Nc1nc(N)c2ncn([C@H]3CO[C@@H](CO)O3)c2n1` [DAPD], for which the “DAPD level in PBMCs relative to CEM cells” value in data set [1] is given as 27 fold. Further, in data set [1] (either cell type), the “phosphorylation of DAPD to mono-, di-, or triphosphate forms” value was “No phosphorylation”. Besides, in the data set with HIV-1LAI (human PBM cells), the EC50 was 1 µM and the EC90 was determined as 6.5 µM. Moreover, the half-inhibitory concentration (IC50) in the data set with Vero cells was more than 100 µM. This compound also gave an IC50 in the data set with human PBM cells (Homo sapiens, PBMC, cytotoxicity) of more than 100 µM. The 50% inhibitory concentration (IC50) in data set [2] was more than 100 µM. In the data set on PBM cells, the “intracellular DXG-TP detected (in words)” value is “high levels” and the “intracellular phosphorylated DAPD / DAPD-TP detected (in words)” value is listed as “no phosphorylated forms of DAPD were detected”.
For the compound `Nc1nc2c(ncn2[C@H]2CO[C@@H](CO)O2)c(=O)[nH]1` [DXG, (−)-β-D-dioxolane guanine], in the data set with PBM cells, the DXG-TP levels amounted to 1.75 ± 0.07 pmol/10^6 cells.
As to `Nc1ncnc2c1ncn2[C@H]1C[C@H](O)[C@@H](CO)O1` [Deoxyadenosine], the “percent deaminated by adenosine deaminase” value in the data set on adenosine deaminase worked out at 59%.
Turning to `CCOC(=O)[C@H](C)NP(=O)(OC[C@@H]1OC[C@H](n2cnc3c(N)nc(N)nc32)O1)Oc1ccccc1` (some centres unmarked) [RS-864], in the data set on HIV-1LAI, the EC50 was 0.24 µM and the EC90 came to 1.3 µM. Moreover, the IC50 with Vero cells is more than 100 µM. The “PBM IC50 (printed as % @ 100 μM)” value in the data set on human PBM cells (@ 100 μM) turned out to be 66.5%. Moreover, the 50% inhibitory concentration (IC50) in data set [2] is more than 100 µM. Also, in the data set on PBM cells, the “intracellular DXG-TP detected (in words)” value is listed as “low levels” and the “intracellular phosphorylated DAPD / DAPD-TP detected (in words)” value was “very high levels”.
